Test results from patent US20260137698A1, “CYCLIN-DEPENDENT KINASE 7 INHIBITORS” (JOINT STOCK COMPANY «BIOCAD», priority 2022, published 2026).

What follows are molecules tested on MDA-MB-468 (triple negative breast cancer) (assay: BrdU incorporation into DNA in MDA-MB-468 cells). Conditions: Homo sapiens, mean of multiple measurements.
Assay type: cell-based
Description: Upon adding bromodeoxyuridine (BrdU) to dividing cells, Thymidine is replaced by its analogue, BrdU, and BrdU is incorporated into DNA. Thus, BrdU incorporated into DNA characterizes the intensity of DNA replication and ongoing S phase of the cell cycle. Reduced incorporation of bromodeoxyuridine into DNA under the action of the compounds characterizes a slowdown in the cell cycle and DNA replication.
The ability of the CDK7 inhibitors according to the present invention to inhibit the incorporation of BrdU into DNA was evaluated in a cell test on continuous cell cultures: MDA-MB-468 (triple negative breast cancer, ATCC® HTB-132™) using a BrdU detection kit (Roche, order no. 11 669 915 001)). The cells were grown in DMEM medium (PanEco, order no. C330π). The basal growth medium was enriched with L-glutamine at a concentration of 2 mM (PanEco, order no. Φ032) and 10% fetal bovine serum (Gibco, order no. 16140-071). MDA-MB-468 adherent cells were detached from plastic with a solution of trypsin-EDTA (PanEco, order no. Π039π), the solution was then inactivated by a DMEM complete medium, centrifuged at 1000 RPM (Eppendorf, 5804 R), a suspension of cells was prepared in a DMEM complete medium, introduced into 96-well culture plates (Corning Inc, order no. 3599) at 4×10^3 cells in 75 μl of medium per well. Test compounds were dissolved in DMSO and diluted with a DMEM complete medium to a final concentration ranging from 0.5 μM to 2 μM. Serum-free growth medium was removed from plate wells, and solutions comprising diluted compounds in the volume of 100 μl in basal growth medium were added. Candidates were introduced into the plate wells with cells in triplicates (the final concentration of DMSO was no more than 1%) and incubated at 37° C. in an incubator with 5% CO2 for 24 hours. Following incubation, 10 μl of solution of BrdU at a concentration of 10 μM was added to wells, the contents of the plates were agitated on an orbital shaker (Biosan, Latvia), and incubated for additional 72 hours at 37° C. in an incubator with 5% CO2. Incorporated BrdU was then detected according to the guidelines of the kit manufacturer. […] 100 μl of substrate solution was introduced into each analyzed well and incubated for 3 minutes at room temperature (+15-25° C.) on an orbital shaker (Biosan, Latvia) and for another 5-7 minutes without stirring.
The amount of incorporated BrdU was detected on the Infinite M200Pro microplate spectrophotometer (Tecan Group Ltd, Switzerland) by measuring the luminescent signal. IC50 value was calculated using the Magellan software (Tecan Group Ltd, Switzerland) by approximating experimental points by four-parameter model with the optimization by Levenberg-Marquardt.

Compound | IC50
CN1CCCc2c(-c3nc(N[C@H]4CCC(C)(C)NC4)ncc3C(F)(F)F)c[nH]c2C1=O [CDK7_1187, 3-(2-{[(3S)-6,6-dimethylpiperidin-3-yl]amino}-5-(trifluoromethyl)py-rimidin-4-yl)-7-methyl-1H,4H,5H,6H,7H, 8H-pyrrolo[2,3-c]azepin-8-one] | 14 nM
CC1(C)CC[C@H](Nc2ncc(C(F)(F)F)c(-c3c[nH]c4c3CCCN(C3CC3)C4=O)n2)CN1 [CDK7_1225, 7-cyclopropyl-3-(2-{[(3S)-6,6-dimethylpiperidin-3-yl]amino}-5-(trifluoromethyl)py-rimidin-4-yl)-1H,4H,5H,6H,7H, 8H-pyrrolo[2,3-c]azepin-8-one] | 24 nM
CC(C)N1CCCc2c(-c3nc(N[C@H]4CCC(C)(C)NC4)ncc3C(F)(F)F)c[nH]c2C1=O [CDK7_1229, 3-(2-{[(3S)-6,6-dimethylpiperidin-3-yl]amino}-5-(trifluoromethyl)py-rimidin-4-yl)-7-(propan-2-yl)-1H,4H,5H,6H,7H, 8H-pyrrolo[2,3-c]azepin-8-one] | 28 nM
O=C1c2[nH]cc(-c3nc(N[C@H]4CCC5(CC5)NC4)ncc3C(F)(F)F)c2CCCN1C1CC1 [CDK7_1276, 3-(2-{[(6S)-4-azaspiro[2.5]octan-6-yl]amino}-5-(trifluoromethyl)py-rimidin-4-yl)-7-cyclopropyl-1H,4H,5H,6H,7H, 8H-pyrrolo[2,3-c]azepin-8-one] | 2 nM
